Reference: PMC9238401, “Peptide Conjugates Derived from flg15, Pep13, and PIP1 That Are Active against Plant-Pathogenic Bacteria and Trigger Plant Defense Responses” (Applied and Environmental Microbiology, 2022)

How the values were obtained:
[1] = tested on: Erwinia amylovora PMV6076; assay: In vitro growth inhibition (MIC); assay type: cell-based; conditions: TSB, 25°C, 48 h, OD 600 nm (Bioscreen C), three replicates, experiment repeated twice; MIC = lowest concentration with no growth, given as range
Protocol: (§1) Peptide conjugates were tested for in vitro growth inhibition of the plant-pathogenic bacteria E. amylovora PMV6076, Xanthomonas arboricola pv. pruni CFBP5563, X. fragariae Xf349-9A, X. axonopodis pv. vesicatoria 2133-2, P. syringae pv. actinidiae Psa3700.1.1, and P. syringae pv. syringae EPS94 (Fig. 1, Table SA). The corresponding monomers (flg15, BP13, Pep13, PIP1, BP16, BP100, BP143, BP387, BP475, and KSL-W) were included for comparison.
(§2) The following plant-pathogenic bacterial strains were used: Erwinia amylovora PMV6076 (Institut National de la Recherche Agronomique, Angers, France), Pseudomonas syringae pv. syringae EPS94 (Institut de Tecnologia Agroalimentària, University of Girona, Spain), Xanthomonas axonopodis pv. vesicatoria 2133-2, X. axonopodis pv. vesicatoria Xav206 (Xav) (D. F. Ritchie, Department of Plant Pathology, North Carolina State University), Pseudomonas syringae pv. actinidiae Psa3700.1.1, Xanthomonas fragariae Xf349-9A (Instituto Valenciano de Investigaciones Agrarias, Valencia, Spain), and Xanthomonas arboricola pv. pruni CFBP5563 (Collection Française de Bactéries Associées aux Plantes, Angers, France). All bacteria except for X. fragariae were stored in Luria Bertani (LB) broth supplemented with glycerol (20%) and maintained at −80°C. For X. fragariae, medium B ([80]) was used instead of LB. E. amylovora, X. arboricola pv. pruni, P. syringae pv. syringae, and P. syringae pv. actinidiae were scraped from the agar medium after growing for 24 h at 25°C, and X. axonopodis pv. vesicatoria and X. fragariae, after growing for 48 h at 25°C. The cell material was suspended in sterile water to obtain a suspension of 10^8 CFU mL^−1.
(§3) Lyophilized peptides were solubilized in sterile Milli-Q water to a final concentration of 1 mM and filter-sterilized through a 0.22-μm pore filter. […] Then, 20 μL of each dilution were mixed in a microtiter plate well with 20 μL of the corresponding suspension of the bacterial indicator, 160 μL of Trypticase soy broth (TSB) (bioMérieux, France) to a total volume of 200 μL. Three replicates for each combination of strain, compound, and concentration were used. Microbial growth was determined by optical density measurement at 600 nm (Bioscreen C; Labsystem, Helsinki, Finland). Microplates were incubated at 25°C with 20 s of shaking before hourly absorbance measurement for 48 h. The experiment was repeated twice. The MIC was taken as the lowest compound concentration with no growth at the end of the experiment.

[2] = tested on: Pseudomonas syringae pv. actinidiae Psa3700.1.1; assay: In vitro growth inhibition (MIC); assay type: cell-based; conditions: TSB, 25°C, 48 h, OD 600 nm (Bioscreen C), three replicates, experiment repeated twice; MIC given as range
Protocol: as §1, §2, §3

[3] = tested on: Pseudomonas syringae pv. syringae EPS94; assay: In vitro growth inhibition (MIC); assay type: cell-based; conditions: TSB, 25°C, 48 h, OD 600 nm (Bioscreen C), three replicates, experiment repeated twice; MIC given as range
Protocol: as §1, §2, §3

[4] = tested on: Xanthomonas arboricola pv. pruni CFBP5563; assay: In vitro growth inhibition (MIC); assay type: cell-based; conditions: TSB, 25°C, 48 h, OD 600 nm (Bioscreen C), three replicates, experiment repeated twice; MIC given as range
Protocol: as §1, §2, §3

[5] = tested on: Xanthomonas fragariae Xf349-9A; assay: In vitro growth inhibition (MIC); assay type: cell-based; conditions: TSB, 25°C, 48 h, OD 600 nm (Bioscreen C), three replicates, experiment repeated twice; MIC given as range
Protocol: as §1, §2, §3

[6] = tested on: Xanthomonas axonopodis pv. vesicatoria 2133-2; conditions: TSB, 25°C, 48 h, OD 600 nm (Bioscreen C), three replicates, experiment repeated twice; MIC given as range
Excerpt: The corresponding monomers (flg15, BP13, Pep13, PIP1, BP16, BP100, BP143, BP387, BP475, and KSL-W) were included for comparison.
as §2, §3

[7] = tested on: horse erythrocytes; conditions: TRIS buffer pH 7.2, 1 h, 37°C, absorbance 540 nm, relative to melittin 100 μM, ± confidence interval (α = 0.05)
Protocol: The toxicity of peptide conjugates to eukaryotic cells was determined as the ability to lyse erythrocytes (Table SB).
The hemolytic activity of the compounds was evaluated by determining hemoglobin release from erythrocyte suspensions of horse blood (5% vol/vol) (Oxoid) as previously described ([45]). Blood was centrifuged at 6000g for 5 min, washed three times with TRIS buffer (10 mM TRIS, 150 mM NaCl, pH 7.2) and diluted 10 times. Compounds were solubilized in TRIS buffer at 750, 500, 300, and 100 μM and mixed with horse erythrocytes (1:1 vol/vol). The mixture was incubated with continuous shaking for 1 h at 37°C. Then, the tubes were centrifuged at 3500g for 10 min, 80-μL aliquots of the supernatant were transferred to 100-well microplates (Bioscreen) and diluted with 80 μL water, and the absorbance measured at 540 nm (Bioscreen). […] The percentage of hemolysis (H) was calculated using the equation H = 100 × ([Op − Ob]/[Om − Ob]), where Op is the density for a given compound concentration, Ob is that for the buffer, and Om is that for the melittin positive control.

[8] = tested on: tobacco leaves; assay: Effect of peptide infiltration on tobacco leaves (phytotoxicity); assay type: in vivo
Protocol: Peptide conjugates were also assayed for their toxicity in tobacco leaves (Fig. 3, Table SC). After 48 h of infiltration, melittin caused a necrotic area of 0.70 and 2.17 cm in diameter at 50 and 250 μM, respectively. The monomers were not phytotoxic at those concentrations; all of them led to lesions of ≤1.2 cm at 250 μM. All peptide conjugates were also less phytotoxic than melittin, causing necrotic lesions between 0.26 and 1.67 cm in diameter at 250 μM. In particular, 15 of the 30 conjugates led to a necrotic area of <1 cm at this concentration. In general, sequences incorporating BP13 were among the most phytotoxic.
Peptide conjugates were evaluated for their effect on infiltration on tobacco leaves as described previously ([41]). Peptide solutions of 50, 150, and 250 μM were infiltrated (100 μL) into the mesophylls of fully expanded tobacco leaves. Infiltrations were carried out in a single leaf, and for each peptide and dose, at least three leaves randomly distributed in different plants were inoculated. Control infiltrations with water (negative control) or melittin (positive control) at the same molar concentration were performed. The appearance of symptoms on the leaves was followed for 48 h after infiltration and measured as lesion diameter.

[9] = HPLC retention time as indicator of relative hydrophobicity; assay type: physicochemical; conditions: chromatographic, Kromasil 100 C18 (4.6 mm × 40 mm, 3 μm), linear gradient 2 to 100% B over 12 min, 1 mL/min; A 0.1% aqueous TFA, B 0.1% TFA in CH3CN; used as indicator of relative hydrophobicity
Protocol: The parameters related to the structure of the peptide conjugates (sequence, charge, hydrophobic ratio [HR], and HPLC retention time), as well as their physicochemical properties (grand average hydropathicity [GRAVY] and hydrophobic moment [<μH>]) obtained from the online programs ProtParam (Expasy server) and HeliQuest are included in Table 1.
Peptides were analyzed under standard analytical HPLC conditions. Method A: peptides were analyzed with a Dionex liquid chromatography instrument composed of a UV/Vis Dionex UVD170U detector, a P680 Dionex pump, an ASI-100 Dionex automatic injector, and Chromeleon 6.60 software. Detection was performed at a wavelength of 220 nm. Solvent A was 0.1% aqueous trifluoroacetic acid (TFA), and solvent B was 0.1% TFA in CH3CN. Analyses were carried out with a Kromasil 100 C18 (4.6 mm × 40 mm, 3 μm) column with a linear gradient of 2 to 100% B over 7 min at a flow rate of 1 mL/min. Method B: peptides were analyzed with a 1260 Infinity II liquid chromatography instrument (Agilent Technologies) composed of a diode array detector HS, a quaternary pump VL, a 1260 vial sampler, and OpenLab CDS ChemStation software. Analyses were carried out with a Kromasil 100 C18 (4.6 mm × 40 mm, 3 μm) column with a linear gradient of 2 to 100% B over 12 min at a flow rate of 1 mL/min.

[10] = 100 μL infiltrated into mesophyll, lesion diameter 48 h after infiltration, at least three leaves, ± confidence interval (α = 0.05)

Substance	MIC, Ea [1]	MIC, Psa [2]	MIC, Pss [3]	MIC, Xap [4]	MIC, Xf [5]	MIC, Xav [6]	Percent hemolysis at 50 μM [7]	Percent hemolysis at 150 μM [7]	Percent hemolysis at 250 μM [7]	Percent hemolysis at 375 μM [7]	Size of the lesions in infiltrated tobacco leaves at 50 μM [8, 10]	Size of the lesions in infiltrated tobacco leaves at 150 μM [8, 10]	Size of the lesions in infiltrated tobacco leaves at 250 μM [8, 10]	tR (min), HPLC retention time (method B) [9]	Size of the lesions in infiltrated tobacco leaves at 50 μM ([8]; in vivo)	Size of the lesions in infiltrated tobacco leaves at 150 μM ([8]; in vivo)	Size of the lesions in infiltrated tobacco leaves at 250 μM ([8]; in vivo)
H-FKLFKKILKVLKKVVFWVKFK-NH2 [BP13-KSLW]	> 50 µM	6.2 to 12.5 µM	12.5 to 25 µM	1.6 to 3.1 µM	1.6 to 3.1 µM	1.6 to 3.1 µM	80 ± 11.2%	90 ± 7.3%	100 ± 8.4%	99 ± 8.4%	0.56 ± 0.23 cm	1.00 ± 0.25 cm	0.92 ± 0.36 cm	7.02 min			
H-KKVVFWVKFKFKLFKKILKVL-NH2 [KSLW-BP13]	25 to 50 µM	1.6 to 3.1 µM	25 to 50 µM	1.6 to 3.1 µM	1.6 to 3.1 µM	3.1 to 6.2 µM	62 ± 8.2%	65 ± 5.9%	77 ± 12.9%	82 ± 10.4%	0.52 ± 0.13 cm	0.88 ± 0.15 cm	1.07 ± 0.34 cm	6.26 min			
H-KKVVFWVKFKYGIHTH-NH2 [KSLW-PIP1]	> 50 µM	> 50 µM	> 50 µM	3.1 to 6.2 µM	3.1 to 6.2 µM	3.1 to 6.2 µM	8 ± 1.3%	3 ± 2.1%	3 ± 1.2%	5 ± 4.9%				4.83 min	0.17 ± 0.17 cm	0.53 ± 0.07 cm	0.97 ± 0.28 cm
